From the NIST ThermoML archive (doi:10.1021/je500458e)
Numbers after ± are expanded uncertainties.

Experiment: mn = molality of the nth substance listed, in mol/kg
Details: 298.15 K, Liquid

Nc1nc(O)c2ncn([C@H]3C[C@H](O)[C@@H](CO)O3)c2n1 [2'-deoxyguanosine] + O
speed of sound [m/s]
Details | 100 kPa | 10000 kPa | 20000 kPa | 40000 kPa | 60000 kPa | 80000 kPa | 100000 kPa
m1 = 0.009827 | 1497.4 ± 1.5 | – | – | – | – | – | –
m1 = 0.01011 | 1497.4 ± 1.5 | – | – | – | – | – | –
m1 = 0.01028 | 1497.4 ± 1.5 | – | – | – | – | – | –
m1 = 0.0103 | 1497.4 ± 1.5 | 1514 ± 0.63 | 1530.8 ± 0.64 | 1564.4 ± 0.64 | 1597.9 ± 0.64 | 1631.3 ± 0.65 | 1664.4 ± 0.65
m1 = 0.01036 | – | – | 1530.8 ± 0.64 | 1564.4 ± 0.64 | 1597.9 ± 0.64 | 1631.3 ± 0.64 | 1664.4 ± 0.65
m1 = 0.01043 | – | 1514 ± 0.63 | 1530.8 ± 0.64 | 1564.4 ± 0.64 | 1597.9 ± 0.64 | 1631.3 ± 0.64 | 1664.4 ± 0.65
m1 = 0.01048 | 1497.4 ± 1.5 | 1514 ± 0.63 | 1530.8 ± 0.64 | 1564.4 ± 0.64 | 1597.9 ± 0.64 | 1631.3 ± 0.64 | 1664.4 ± 0.65
m1 = 0.01051 | 1497.4 ± 1.5 | – | – | – | – | – | –
m1 = 0.01057 | 1497.4 ± 1.5 | – | – | – | – | – | –
m1 = 0.01059 | – | 1514.1 ± 0.63 | 1530.9 ± 0.64 | – | 1597.9 ± 0.64 | 1631.3 ± 0.64 | 1664.5 ± 0.65
m1 = 0.01062 | – | 1514.1 ± 0.63 | 1530.9 ± 0.64 | 1564.4 ± 0.64 | 1597.9 ± 0.64 | 1631.3 ± 0.64 | 1664.5 ± 0.65
m1 = 0.01068 | – | 1514.1 ± 0.63 | 1530.9 ± 0.64 | – | 1597.9 ± 0.64 | 1631.3 ± 0.64 | 1664.5 ± 0.65
m1 = 0.0107 | 1497.5 ± 1.5 | – | – | – | – | – | –
m1 = 0.01075 | – | 1514.1 ± 0.63 | 1530.9 ± 0.64 | 1564.4 ± 0.64 | 1597.9 ± 0.64 | 1631.3 ± 0.64 | 1664.5 ± 0.65

O=c1[nH]cnc2c1ncn2[C@H]1C[C@H](O)[C@@H](CO)O1 [2'-deoxyinosine] + O
Details | speed of sound [m/s]
100 kPa, m1 = 0.02199 | 1498.1 ± 1.5
100 kPa, m1 = 0.02301 | 1498.2 ± 1.5
100 kPa, m1 = 0.024 | 1498.3 ± 1.5
100 kPa, m1 = 0.02493 | 1498.3 ± 1.5
100 kPa, m1 = 0.02599 | 1498.4 ± 1.5
100 kPa, m1 = 0.02701 | 1498.5 ± 1.5
100 kPa, m1 = 0.02813 | 1498.6 ± 1.5
100 kPa, m1 = 0.02896 | 1498.6 ± 1.5
100 kPa, m1 = 0.02994 | 1498.7 ± 1.5
10000 kPa, m1 = 0.02283 | 1514.8 ± 0.64
10000 kPa, m1 = 0.0239 | 1514.9 ± 0.64
10000 kPa, m1 = 0.02481 | 1514.9 ± 0.64
10000 kPa, m1 = 0.02661 | 1515 ± 0.64
10000 kPa, m1 = 0.02749 | 1515.1 ± 0.64
10000 kPa, m1 = 0.02755 | 1515.1 ± 0.64
10000 kPa, m1 = 0.02877 | 1515.2 ± 0.64
10000 kPa, m1 = 0.02944 | 1515.2 ± 0.64
20000 kPa, m1 = 0.02283 | 1531.6 ± 0.64
20000 kPa, m1 = 0.0239 | 1531.7 ± 0.64
20000 kPa, m1 = 0.02481 | 1531.7 ± 0.64
20000 kPa, m1 = 0.02661 | 1531.9 ± 0.64
20000 kPa, m1 = 0.02749 | 1531.9 ± 0.64
20000 kPa, m1 = 0.02755 | 1531.9 ± 0.64
20000 kPa, m1 = 0.02877 | 1532 ± 0.64
20000 kPa, m1 = 0.02944 | 1532 ± 0.64
40000 kPa, m1 = 0.02283 | 1565.2 ± 0.64
40000 kPa, m1 = 0.0239 | 1565.3 ± 0.64
40000 kPa, m1 = 0.02481 | 1565.3 ± 0.64
40000 kPa, m1 = 0.02661 | 1565.5 ± 0.64
40000 kPa, m1 = 0.02749 | 1565.5 ± 0.64
40000 kPa, m1 = 0.02755 | 1565.5 ± 0.64
40000 kPa, m1 = 0.02877 | 1565.6 ± 0.64
40000 kPa, m1 = 0.02944 | 1565.6 ± 0.64
60000 kPa, m1 = 0.02283 | 1598.7 ± 0.64
60000 kPa, m1 = 0.0239 | 1598.8 ± 0.64
60000 kPa, m1 = 0.02481 | 1598.9 ± 0.64
60000 kPa, m1 = 0.02661 | 1599 ± 0.64
60000 kPa, m1 = 0.02749 | 1599 ± 0.64
60000 kPa, m1 = 0.02755 | 1599 ± 0.64
60000 kPa, m1 = 0.02877 | 1599.1 ± 0.64
60000 kPa, m1 = 0.02944 | 1599.2 ± 0.64
80000 kPa, m1 = 0.02283 | 1632.1 ± 0.64
80000 kPa, m1 = 0.0239 | 1632.1 ± 0.65
80000 kPa, m1 = 0.02481 | 1632.2 ± 0.65
80000 kPa, m1 = 0.02661 | 1632.3 ± 0.65
80000 kPa, m1 = 0.02749 | 1632.4 ± 0.65
80000 kPa, m1 = 0.02755 | 1632.4 ± 0.65
80000 kPa, m1 = 0.02877 | 1632.5 ± 0.65
80000 kPa, m1 = 0.02944 | 1632.5 ± 0.65
100000 kPa, m1 = 0.02283 | 1665.2 ± 0.65
100000 kPa, m1 = 0.0239 | 1665.3 ± 0.65
100000 kPa, m1 = 0.02481 | 1665.3 ± 0.65
100000 kPa, m1 = 0.02661 | 1665.5 ± 0.65
100000 kPa, m1 = 0.02749 | 1665.5 ± 0.65
100000 kPa, m1 = 0.02755 | 1665.5 ± 0.65
100000 kPa, m1 = 0.02877 | 1665.6 ± 0.65
100000 kPa, m1 = 0.02944 | 1665.6 ± 0.65
